≈ marks a conversion by molar mass, not a printed value. Where “and” joins values, the source holds several entries; their conditions need not be identical. Equal values may be shown once. One block for each compound: values may come before it.
Experiments:
EGFR [1] = target: EGFR (UniProt P00533)
EGFR (human) [2] = target: EGFR (human) (UniProt P00533); details: nhek
EGFR (human) [3] = target: EGFR (human) (UniProt P00533); details: htb161
EGFR (human) [4] = target: EGFR (human) (UniProt P00533); details: a2780s
EGFR (human) [5] = target: EGFR (human) (UniProt P00533); details: a2780ddp
EGFR (human) [6] = target: EGFR (human) (UniProt P00533); details: mip
EGFR (human) [7] = target: EGFR (human) (UniProt P00533); details: colo-205
EGFR (human) [8] = target: EGFR (human) (UniProt P00533); details: cx-1 colon
EGFR (human) [9] = target: EGFR (human) (UniProt P00533); details: caco2
EGFR (human) [10] = target: EGFR (human) (UniProt P00533); details: hct-15
EGFR (human) [11] = target: EGFR (human) (UniProt P00533); details: ls174t
EGFR (human) [12] = target: EGFR (human) (UniProt P00533); details: sw948
EGFR (human) [13] = target: EGFR (human) (UniProt P00533); details: ccl228
EGFR (human) [14] = target: EGFR (human) (UniProt P00533); details: b7474
EGFR (human) [15] = target: EGFR (human) (UniProt P00533); details: t-47d
EGFR (human) [16] = target: EGFR (human) (UniProt P00533); details: lx1
EGFR (human) [17] = target: EGFR (human) (UniProt P00533); details: a549
EGFR (human) [18] = target: EGFR (human) (UniProt P00533); details: a431
EGFR (human) [19] = target: EGFR (human) (UniProt P00533); details: nfc
EGFR (human) [20] = target: EGFR (human) (UniProt P00533); details: du145
EGFR (human) [21] = target: EGFR (human) (UniProt P00533); details: pc-3
EGFR (human) [22] = target: EGFR (human) (UniProt P00533); details: lncap
EGFR (human) [23] = target: EGFR (human) (UniProt P00533); details: hl-60
EGFR (human) [24] = target: EGFR (human) (UniProt P00533); details: ccrf-cem leukemia cell
EGFR [25] = target: EGFR (UniProt P00533); remark: listed apart in the source

Sequence of EGFR (P00533 whole entry, looked up): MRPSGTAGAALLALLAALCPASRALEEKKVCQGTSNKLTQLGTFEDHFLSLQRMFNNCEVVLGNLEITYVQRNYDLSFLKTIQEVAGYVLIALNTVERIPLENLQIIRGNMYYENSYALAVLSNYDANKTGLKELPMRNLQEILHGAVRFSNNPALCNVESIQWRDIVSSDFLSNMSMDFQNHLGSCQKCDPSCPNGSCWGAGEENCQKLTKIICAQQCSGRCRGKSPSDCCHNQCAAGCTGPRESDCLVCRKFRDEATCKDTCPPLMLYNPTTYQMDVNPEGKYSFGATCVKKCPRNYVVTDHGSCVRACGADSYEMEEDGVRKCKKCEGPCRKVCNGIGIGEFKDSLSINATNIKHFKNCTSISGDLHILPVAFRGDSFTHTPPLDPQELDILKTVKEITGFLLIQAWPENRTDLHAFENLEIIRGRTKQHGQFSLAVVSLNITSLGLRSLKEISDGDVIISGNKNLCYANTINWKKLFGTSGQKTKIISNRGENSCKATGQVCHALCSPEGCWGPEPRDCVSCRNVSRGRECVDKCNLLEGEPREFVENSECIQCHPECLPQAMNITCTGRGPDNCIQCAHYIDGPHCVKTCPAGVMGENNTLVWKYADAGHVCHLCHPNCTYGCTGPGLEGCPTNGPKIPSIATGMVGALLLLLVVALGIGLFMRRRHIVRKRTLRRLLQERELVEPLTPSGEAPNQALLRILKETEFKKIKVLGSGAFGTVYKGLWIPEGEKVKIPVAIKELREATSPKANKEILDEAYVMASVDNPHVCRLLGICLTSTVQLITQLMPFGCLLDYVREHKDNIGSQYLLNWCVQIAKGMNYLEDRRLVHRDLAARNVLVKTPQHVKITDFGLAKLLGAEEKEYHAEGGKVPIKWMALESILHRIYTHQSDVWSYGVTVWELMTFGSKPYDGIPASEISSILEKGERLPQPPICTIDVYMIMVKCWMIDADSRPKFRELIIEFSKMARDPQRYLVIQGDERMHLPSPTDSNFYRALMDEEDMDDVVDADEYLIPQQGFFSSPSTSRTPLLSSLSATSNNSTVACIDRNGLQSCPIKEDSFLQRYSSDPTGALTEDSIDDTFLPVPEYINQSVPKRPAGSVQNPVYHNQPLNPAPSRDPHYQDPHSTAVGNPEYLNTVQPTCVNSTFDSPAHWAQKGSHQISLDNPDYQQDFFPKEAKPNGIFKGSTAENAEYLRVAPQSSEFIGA
Sequence of EGFR (human) (P00533 whole entry, looked up): as above

IC50 (EGFR [1]): 9000 nM
IC50 (EGFR (human) [2]): 9000 nM
IC50 (EGFR (human) [3]): 7.89 µg/mL (≈ 19.5 µM)
IC50 (EGFR (human) [4]): 9.8 µg/mL (≈ 24.2 µM)
IC50 (EGFR (human) [5]): 60.4 µg/mL (≈ 149 µM)
IC50 (EGFR (human) [6]): 100 µg/mL (≈ 247 µM)
IC50 (EGFR (human) [7]): > 100 µg/mL
IC50 (EGFR (human) [8]): 81.9 µg/mL (≈ 202 µM)
IC50 (EGFR (human) [9]): 5.63 µg/mL (≈ 13.9 µM)
IC50 (EGFR (human) [10]): > 33 µg/mL and 98.9 µg/mL
IC50 (EGFR (human) [11]): > 33 µg/mL and 87 µg/mL
IC50 (EGFR (human) [12]): > 100 µg/mL
IC50 (EGFR (human) [13]): > 100 µg/mL
IC50 (EGFR (human) [14]): > 33 µg/mL and 95.7 µg/mL
IC50 (EGFR (human) [15]): > 100 µg/mL
IC50 (EGFR (human) [16]): > 100 µg/mL
IC50 (EGFR (human) [17]): > 100 µg/mL
IC50 (EGFR (human) [18]): 38.1 µg/mL
IC50 (EGFR (human) [19]): > 100 µg/mL
IC50 (EGFR (human) [20]): 7.81 µg/mL (≈ 19.3 µM)
IC50 (EGFR (human) [21]): > 100 µg/mL
IC50 (EGFR (human) [22]): > 33 µg/mL and 90 µg/mL
IC50 (EGFR (human) [23]): > 100 µg/mL
IC50 (EGFR (human) [24]): > 100 µg/mL
SMILES: CC#CC(=O)Nc1ccc2ncc(C#N)c(Nc3cccc(Br)c3)c2c1

IC50 (EGFR [25]): 0.008 nM
SMILES: COc1cc2ncc(C#N)c(Nc3cccc(Br)c3)c2cc1NC(=O)C#CCN(C)C

IC50 (EGFR (human) [18]): 800 nM
SMILES: CCN1CCN(CC#CC(=O)Nc2ccc3ncc(C#N)c(Nc4cccc(Br)c4)c3c2)CC1

IC50 (EGFR (human) [18]): 240 nM and 0.71 µg/mL
SMILES: COc1cc2ncc(C#N)c(Nc3cccc(Cl)c3)c2cc1OC

IC50 (EGFR (human) [7]): > 100 µg/mL
IC50 (EGFR (human) [12]): > 100 µg/mL
SMILES: N#Cc1cnc2ccc(N)cc2c1Nc1cccc(Br)c1

IC50 (EGFR [25]): 80 nM
IC50 (EGFR (human) [18]): 0.8 µg/mL
SMILES: COC/C=C/C(=O)Nc1ccc2ncc(C#N)c(Nc3cccc(Br)c3)c2c1

IC50 (EGFR (human) [18]): 300 nM
SMILES: COc1cc2ncc(C#N)c(Nc3cccc(Br)c3)c2cc1OC

IC50 (EGFR (human) [18]): > 5 µg/mL
SMILES: CC(=O)Nc1cc(CN(C)C)c2ncc(C#N)c(Nc3cccc(Br)c3)c2c1

IC50 (EGFR (human) [8]): > 100 µg/mL
IC50 (EGFR (human) [10]): 100 µg/mL (≈ 271 µM)
IC50 (EGFR (human) [12]): > 100 µg/mL
IC50 (EGFR (human) [13]): > 100 µg/mL
IC50 (EGFR (human) [16]): > 100 µg/mL
IC50 (EGFR (human) [17]): > 100 µg/mL
IC50 (EGFR (human) [19]): > 100 µg/mL
IC50 (EGFR (human) [21]): > 100 µg/mL
IC50 (EGFR (human) [22]): > 100 µg/mL
IC50 (EGFR (human) [24]): > 100 µg/mL
SMILES: N#Cc1cnc2ccc([N+](=O)[O-])cc2c1Nc1cccc(Br)c1

IC50 (EGFR (human) [6]): > 100 µg/mL
IC50 (EGFR (human) [7]): > 100 µg/mL
IC50 (EGFR (human) [12]): > 100 µg/mL
IC50 (EGFR (human) [13]): > 100 µg/mL
IC50 (EGFR (human) [16]): 100 µg/mL (≈ 303 µM)
IC50 (EGFR (human) [17]): 100 µg/mL (≈ 303 µM)
IC50 (EGFR (human) [23]): > 1 µg/mL
IC50 (EGFR (human) [24]): > 100 µg/mL
SMILES: COc1cc2ncc(C#N)c(Nc3cccc(C#N)c3)c2cc1OC

IC50 (EGFR (human) [6]): > 100 µg/mL
IC50 (EGFR (human) [11]): > 100 µg/mL
IC50 (EGFR (human) [12]): > 100 µg/mL
IC50 (EGFR (human) [16]): > 100 µg/mL
IC50 (EGFR (human) [17]): > 100 µg/mL
IC50 (EGFR (human) [18]): 100 µg/mL
IC50 (EGFR (human) [21]): > 100 µg/mL
IC50 (EGFR (human) [24]): > 100 µg/mL
SMILES: COc1cc2ncc(C#N)c(Oc3cccc(Br)c3)c2cc1OC

IC50 (EGFR [25]): 10 nM
IC50 (EGFR (human) [18]): 14.3 µg/mL and 6.95 µg/mL
SMILES: COc1cc2ncc(C#N)c(Nc3cccc(SC)c3)c2cc1OC

IC50 (EGFR (human) [12]): > 100 µg/mL
IC50 (EGFR (human) [15]): > 100 µg/mL
IC50 (EGFR (human) [21]): > 100 µg/mL
SMILES: COc1cc2ncc(C#N)c(Nc3ccc(F)cc3)c2cc1OC

IC50 (EGFR (human) [18]): > 10 µg/mL
SMILES: CNC/C=C/C(=O)Nc1ccc2ncc(C#N)c(Nc3cccc(Br)c3)c2c1
